According to patent US20050197350A1, “Novel quinoline, tetrahydroquinazoline, and pyrimidine derivatives and methods of treatment related to the use thereof” (TAISHO PHARMACEUTICAL CO., LTD., priority 2003, published 2005):

Tested on: MCH receptors
Assay: MCH receptor activity class (method not given)
[1] = class by percent of control at 10^-7 M or IC50
[2] = activity class per percent of control at 10^-7 M or IC50
[3] = class by percent of control at 10^−7 M or IC50
[4] = activity class 1-3: percent of control at 10^-7 M or IC50
[5] = class 1-3 by percent of control at 10^-7 M or IC50
[6] = MCH receptor, class by percent of control at 10^-7 M or IC50

For `COc1cc(OC)c(CNC[C@H]2CC[C@@H](Nc3nc4c(c(N(C)C)n3)CCCC4)CC2)cc1Br` [compound 1386], the class [1] was 3 (Class 3 The value of percent of control at 10^−7 M was more than 60% or the value of IC50 was more than 200 nM.).
With `CCOc1ccccc1CNC[C@H]1CC[C@@H](Nc2nc3c(c(N(C)C)n2)CCCC3)CC1` [compound 1365] the class [1] was 2 (Class 2: The value of percent of control at 10^−7 M was from 40% to 60% or the value of IC′50 was from 50 nM to 200 nM.).
`CCc1cccc(CC)c1NC(=S)N[C@H]1CC[C@@H](Nc2nc3c(c(N(C)C)n2)CCCC3)CC1` [compound 1757] was tested, and the class [1] was 1 (Class 1: The value of percent of control at 10^−7 M was less than 40% or the value of IC50 was less than 50 nM.).
With `CN(C)c1cc(N[C@H]2CC[C@@H](NCc3cccc4ccccc34)CC2)nc2ccccc12` [compound 1119] the class [2] was 3 (Class 3 The value of percent of control at 10^−7 M was more than 60% or the value of IC50 was more than 200 nM.).
With `Cc1cc(N(C)C)nc(N[C@H]2CC[C@@H](C(=O)N[C@@H](C)c3ccc(Cl)cc3)CC2)n1` [compound 2797, cis-N-[(1S)-1-(4-chlorophenyl)ethyl]-4-{[4-(dimethylamino)-6-methylpyrimidin-2-yl]amino}cyclohexanecarboxamide] the class [3] was 1 (Class 1: The value of percent of control at 10^−7 M was less than 40% or the value of IC50 was less than 50 nM.).
For `Cc1cnc(N[C@H]2CC[C@@H](CNC(=O)c3ccc(F)c(F)c3)CC2)nc1N(C)C` [compound 2692, N-[(cis-4-{[4-(dimethylamino)-5-methylpyrimidin-2-yl]amino}cyclohexyl)methyl]-3,4-difluorobenzamide], the class [3] was 2 (Class 2: The value of percent of control at 10^−7 M was from 40% to 60% or the value of IC′50 was from 50 nM to 200 nM.).
With `Cc1cnc(N[C@H]2CC[C@@H](CNC(=O)c3cccnc3Oc3ccc(Br)cc3)C2)nc1N(C)C` [compound 3012] the class [3] was 2 (Class 2: The value of percent of control at 10^−7 M was from 40% to 60% or the value of IC′50 was from 50 nM to 200 nM.).
For `CN(C)c1nc(N[C@H]2CC[C@@H](NC(=O)CC(c3ccccc3)c3ccccc3)CC2)nc2c1CCCC2` [compound 1032], the class [2] was 3 (Class 3 The value of percent of control at 10^−7 M was more than 60% or the value of IC50 was more than 200 nM.).
In the case of `CSc1ccc(NC(=O)N[C@H]2CC[C@@H](Nc3nc4c(c(N(C)C)n3)CCCC4)CC2)cc1` [compound 1665], the class [4] is reported as 3 (Class 3 The value of percent of control at 10^−7 M was more than 60% or the value of IC50 was more than 200 nM.).
For `C=CCSc1ncccc1C(=O)N[C@H]1CC[C@@H](Nc2nc3c(c(N(C)C)n2)CCCC3)CC1` [compound 1059], the class [2] was 3 (Class 3 The value of percent of control at 10^−7 M was more than 60% or the value of IC50 was more than 200 nM.).
For `COc1cccc(OC)c1CNC[C@H]1CC[C@@H](Nc2cc(N(C)C)c3ccccc3n2)CC1` [compound 1122], the class [2] was 2 (Class 2: The value of percent of control at 10^−7 M was from 40% to 60% or the value of IC′50 was from 50 nM to 200 nM.).
For `Cc1cnc(N[C@H]2CC[C@@H](NC(=O)c3cccc(Cl)c3)CC2)nc1N(C)C` [compound 2940, 3-chloro-N-(cis-4-{[4-(dimethylamino)-5-methylpyrimidin-2-yl]amino}cyclohexyl)benzamide], the class [3] was 1 (Class 1: The value of percent of control at 10^−7 M was less than 40% or the value of IC50 was less than 50 nM.).
With `CN(C)c1nc(N[C@H]2CC[C@@H](NC(=O)Cc3ccccc3)CC2)nc2c1CCCC2` [compound 481] the class [5] was 3 (Class 3 The value of percent of control at 10^−7 M was more than 60% or the value of IC50 was more than 200 nM.).
In the case of `CN(C)c1nc(N[C@H]2CC[C@@H](NC(=O)OCC3c4ccccc4-c4ccccc43)CC2)nc2c1CCCC2` [compound 1597], the class [4] is reported as 3 (Class 3 The value of percent of control at 10^−7 M was more than 60% or the value of IC50 was more than 200 nM.).
For `CN(C)c1ccnc(N[C@H]2CC[C@@H](CNC(=O)c3cc(F)cc(F)c3)CC2)n1` [compound 379], the class [1] was 3 (Class 3 The value of percent of control at 10^−7 M was more than 60% or the value of IC50 was more than 200 nM.).
For `Cc1cc(C)c(NC(=S)N[C@H]2CC[C@@H](Nc3nc4c(c(N(C)C)n3)CCCC4)CC2)cc1C` [compound 1769], the class [1] was 3 (Class 3 The value of percent of control at 10^−7 M was more than 60% or the value of IC50 was more than 200 nM.).
`CN(C)c1ccnc(N[C@H]2CC[C@@H](NC(=O)c3cc(Cl)cc(Cl)c3NC(=O)C#Cc3ccccc3)CC2)n1` [compound 858] was tested, and the class [1] was 2 (Class 2: The value of percent of control at 10^−7 M was from 40% to 60% or the value of IC′50 was from 50 nM to 200 nM.).
For `CN(C)c1nc(N[C@H]2CC[C@@H](NC(=O)C3CCCC[C@H]3C(=O)c3ccccc3)CC2)nc2c1CCCC2` (some centres unmarked) [compound 969], the class [1] was 3 (Class 3 The value of percent of control at 10^−7 M was more than 60% or the value of IC50 was more than 200 nM.).
In the case of `CCOc1cccc(C(=O)N[C@H]2CC[C@@H](Nc3nc(C)c(C)c(N(C)C)n3)CC2)c1` [compound 2861], the class [3] is reported as 1 (Class 1: The value of percent of control at 10^−7 M was less than 40% or the value of IC50 was less than 50 nM.).
`COc1ccccc1OC(=O)N[C@H]1CC[C@@H](Nc2nc3c(c(N(C)C)n2)CCCC3)CC1` [compound 1584] was tested, and the class [4] was 3 (Class 3 The value of percent of control at 10^−7 M was more than 60% or the value of IC50 was more than 200 nM.).
With `CN(C)c1ccnc(N[C@H]2CC[C@@H](NC[C@@H](COCc3ccccc3)OCc3ccccc3)CC2)n1` [compound 1521] the class [4] was 3 (Class 3 The value of percent of control at 10^−7 M was more than 60% or the value of IC50 was more than 200 nM.).
With `CC(C)[C@@H]1CC[C@@H](C)CC1OC(=O)NC[C@H]1CC[C@@H](Nc2nc3c(c(N(C)C)n2)CCCC3)CC1` (some centres unmarked) [compound 1613] the class [4] was 3 (Class 3 The value of percent of control at 10^−7 M was more than 60% or the value of IC50 was more than 200 nM.).
`CN(C)c1nc(N[C@H]2CC[C@@H](NC(=O)CCc3ccccc3)CC2)nc2c1CCCC2` [compound 563] was tested, and the class [5] was 3 (Class 3 The value of percent of control at 10^−7 M was more than 60% or the value of IC50 was more than 200 nM.).
`Cc1cccc(N(C)C(=O)N[C@H]2CC[C@@H](Nc3ncc(C)c(N(C)C)n3)CC2)c1` [compound 3023, N′-(cis-4-{[4-(dimethylamino)-5-methylpyrimidin-2-yl]amino}cyclohexyl)-N-methyl-N-(3-methylphenyl)urea] was tested, and the class [3] was 1 (Class 1: The value of percent of control at 10^−7 M was less than 40% or the value of IC50 was less than 50 nM.).
With “N-cyclopropyl-N′-(cis-4-{[4-(dimethylamino)-5,6,7,8-tetrahydroquinazolin-2-yl]amino}cyclohexyl)thiourea [compound 2028]” the class [6] was 3 (Class 3 The value of percent of control at 10^−7 M was more than 60% or the value of IC50 was more than 200 nM.).
In the case of `Cc1ccc(C(=O)N[C@H]2CC[C@@H](Nc3cc(N(C)C)c4ccccc4n3)CC2)cc1[N+](=O)[O-]` [compound 43, N-(cis-4-{[4-(dimethylamino)quinolin-2-yl]amino}cyclohexyl)-4-methyl-3-nitrobenzamide], the class [6] is reported as 2 (Class 2: The value of percent of control at 10^−7 M was from 40% to 60% or the value of IC′50 was from 50 nM to 200 nM.).
In the case of `CN(C)c1nc(N[C@H]2CC[C@@H](NC(=O)Nc3c(Cl)cccc3C(F)(F)F)CC2)nc2c1CCCC2` [compound 1673], the class [4] is reported as 3 (Class 3 The value of percent of control at 10^−7 M was more than 60% or the value of IC50 was more than 200 nM.).
For `CN(C)c1nc(N[C@H]2CC[C@@H](CNC(=O)c3ccccc3SC(F)F)CC2)nc2c1CCCC2` [compound 644], the class [1] was 3 (Class 3 The value of percent of control at 10^−7 M was more than 60% or the value of IC50 was more than 200 nM.).
`CN(C)c1nc(N[C@H]2CC[C@@H](CNC(=O)c3cc(F)ccc3Cl)CC2)nc2c1CCCC2` [compound 660] was tested, and the class [1] was 3 (Class 3 The value of percent of control at 10^−7 M was more than 60% or the value of IC50 was more than 200 nM.).
With `CCCCCCCCOC(=O)N[C@H]1CC[C@@H](Nc2nccc(N(C)C)n2)CC1` [compound 1626] the class [4] was 3 (Class 3 The value of percent of control at 10^−7 M was more than 60% or the value of IC50 was more than 200 nM.).
In the case of `Cc1cnc(N[C@H]2CC[C@@H](CNC(=O)c3ccc(F)c(Cl)c3)CC2)nc1N(C)C` [compound 2704], the class [3] is reported as 1 (Class 1: The value of percent of control at 10^−7 M was less than 40% or the value of IC50 was less than 50 nM.).
With `CN(C)c1nc(N[C@H]2CC[C@@H](NC(=O)Nc3ccc(Cl)cc3C(F)(F)F)CC2)nc2c1CCCC2` [compound 1687] the class [4] was 3 (Class 3 The value of percent of control at 10^−7 M was more than 60% or the value of IC50 was more than 200 nM.).
With `CN(C)c1ccnc(N[C@H]2CC[C@@H](NC(=O)c3ccc4ncsc4c3)CC2)n1` [compound 918] the class [1] was 3 (Class 3 The value of percent of control at 10^−7 M was more than 60% or the value of IC50 was more than 200 nM.).
In the case of `COc1cc(OC)c(OC)cc1CNC[C@H]1CC[C@@H](Nc2nccc(N(C)C)n2)CC1` [compound 1296], the class [1] is reported as 2 (Class 2: The value of percent of control at 10^−7 M was from 40% to 60% or the value of IC′50 was from 50 nM to 200 nM.).
`CN(C)c1nc(N[C@H]2CC[C@@H](NC(=O)Cc3cccc(Oc4ccccc4)c3)CC2)nc2c1CCCC2` [compound 1003] was tested, and the class [2] was 2 (Class 2: The value of percent of control at 10^−7 M was from 40% to 60% or the value of IC′50 was from 50 nM to 200 nM.).
`Cc1ccc(-c2ccc(C(=O)N[C@H]3CC[C@@H](Nc4nc5c(c(N(C)C)n4)CCCC5)CC3)o2)c([N+](=O)[O-])c1` [compound 963] was tested, and the class [1] was 2 (Class 2: The value of percent of control at 10^−7 M was from 40% to 60% or the value of IC′50 was from 50 nM to 200 nM.).
For `CN(C)c1nc(N[C@H]2CC[C@@H](NC(=O)OCc3ccccc3)CC2)nc2c1CCCC2` [compound 1591], the class [4] was 3 (Class 3 The value of percent of control at 10^−7 M was more than 60% or the value of IC50 was more than 200 nM.).
For `Cc1cc(N(C)C)nc(N[C@H]2CC[C@@H](NC(=O)c3ccc(Br)o3)CC2)n1` [compound 2979, 5-bromo-N-(cis-4-{[4-(dimethylamino)-6-methylpyrimidin-2-yl]amino}cyclohexyl)-2-furamide], the class [3] was 1 (Class 1: The value of percent of control at 10^−7 M was less than 40% or the value of IC50 was less than 50 nM.).
